Read-outs that look alike come from different tables or passages of the source.
Columns and labels:
Assay type in all cases: cell-based
[1] = test system: BaF3_EGFRWT cells; test: Cell growth inhibition assay, BaF3_EGFRWT; settings: 80 ng/mL recombinant human EGF, 3 days treatment, CellTiterGlo 2.0, read-out: EGFR WT IC50 (nM), cell growth inhibition
[2] = test system: BaF3_HER2WT cells; test: Cell growth inhibition assay, BaF3_HER2WT; settings: 3 days treatment, CellTiterGlo 2.0, read-out: HER2 WT IC50 (nM), cell growth inhibition
[3] = test system: BaF3_HER2YVMA cells; test: Cell growth inhibition assay, BaF3_HER2YVMA; settings: BaF3_HER2YVMA cells, 3 days treatment, CellTiterGlo 2.0, read-out: HER2-YVMA IC50 (nM), cell growth inhibition

| SMILES | IC50 ([1]; 72 h) | IC50 ([2]; 72 h) | IC50 ([3]; 72 h) | IC50 [1] | IC50 [3] | IC50 [2] |
| --- | --- | --- | --- | --- | --- | --- |
| Cc1cc(Nc2ncnn3ccc(N4CC(NC(=O)/C=C/CN(C)C)C4)c23)ccc1Oc1ccn2ncnc2c1 [Example 71, (E)-N-(1-(4-((4-([1,2,4]triazolo[1,5-a]pyridin-7-yloxy)-3-methylphenyl)amino)pyrrolo[2,1-f][1,2,4]triazin-5-yl)azetidin-3-yl)-4-(dimethylamino)but-2-enamide] | 1500 to 5000 nM | < 200 nM | 200 to 500 nM | – | – | – |
| Cc1cc(Nc2ncnn3cnc(C4CCN(C(=O)/C=C/CN(C)C)CC4)c23)ccc1Oc1ccn2ncnc2c1 [Example 88, (E)-1-(4-(4-((4-([1,2,4]triazolo[1,5-a]pyridin-7-yloxy)-3-methylphenyl)amino)imidazo[5,1-f][1,2,4]triazin-5-yl)piperidin-1-yl)-4-(dimethylamino)but-2-en-1-one] | 1500 to 5000 nM | 500 to 1500 nM | 1500 to 5000 nM | – | – | – |
| C=CC(=O)NC1CCN(c2ccn3ncnc(Nc4ccc(Oc5ccn6ncnc6c5)c(C)c4)c23)CC1 [Example 78, N-(1-(4-((4-([1,2,4]triazolo[1,5-a]pyridin-7-yloxy)-3-methylphenyl)amino)pyrrolo[2,1-f][1,2,4]triazin-5-yl)piperidin-4-yl)acrylamide] | 1500 to 5000 nM | < 200 nM | 200 to 500 nM | – | – | – |
| C=CC(=O)N1CCCC(c2ccn3ncnc(Nc4ccc(Oc5ccn6ncnc6c5)c(C)c4)c23)CC1 (stereo not drawn) [Example 9, 1-(4-(4-((4-([1,2,4]triazolo[1,5-a]pyridin-7-yloxy)-3-methylphenyl)amino)pyrrolo[2,1-f][1,2,4]triazin-5-yl)azepan-1-yl)prop-2-en-1-one] | 200 to 500 nM | < 200 nM | < 200 nM | – | – | – |
| C=CC(=O)N1CC=C(c2ccn3ncnc(Nc4ccc(Oc5ccn6ncnc6c5)c(C)c4)c23)C1 [Example 28, 1-(3-(4-((4-([1,2,4]triazolo[1,5-a]pyridin-7-yloxy)-3-methylphenyl)amino)pyrrolo[2,1-f][1,2,4]triazin-5-yl)-2,5-dihydro-1H-pyrrol-1-yl)prop-2-en-1-one acetate] | 1500 to 5000 nM | < 200 nM | 500 to 1500 nM | – | – | – |
| Cc1cc(Nc2ncnn3ccc(N4CCCC(N(C)C(=O)/C=C/CN(C)C)C4)c23)ccc1Oc1ccn2ncnc2c1 (stereo not drawn) [Example 68, (E)-N-(1-(4-((4-([1,2,4]triazolo[1,5-a]pyridin-7-yloxy)-3-methylphenyl)amino)pyrrolo[2,1-f][1,2,4]triazin-5-yl)piperidin-3-yl)-4-(dimethylamino)-N-methylbut-2-enamide] | 1500 to 5000 nM | < 200 nM | < 200 nM | – | – | – |
| Cc1cc(Nc2ncnn3ccc(C4CCCN(C(=O)C(F)Cl)CC4)c23)ccc1Oc1ccn2ncnc2c1 (single isomer, unassigned) [Examples 145, 146, 147 and 148, first eluting isomer, 1-(4-(4-((4-([1,2,4]triazolo[1,5-a]pyridin-7-yloxy)-3-methylphenyl)amino)pyrrolo[2,1-f][1,2,4]triazin-5-yl)azepan-1-yl)-2-chloro-2-fluoroethan-1-one] | – | < 200 nM | – | 1500 to 5000 nM | 200 to 500 nM | – |
| Cc1cc(Nc2ncnn3ccc(C4CC5CCC4CN5C(=O)/C=C/CN(C)C)c23)ccc1Oc1ccn2ncnc2c1 (single isomer, unassigned; first eluting) [Examples 137 and 138, first eluting isomer] | – | – | – | 1500 to 5000 nM | 200 to 500 nM | < 200 nM |
| Cc1cc(Nc2ncnn3ccc(C4CN(C(=O)/C=C/CN5CCC(F)CC5)C4)c23)ccc1Oc1ccn2ncnc2c1 [Example 62, (E)-1-(3-(4-((4-([1,2,4]triazolo[1,5-a]pyridin-7-yloxy)-3-methylphenyl)amino)pyrrolo[2,1-f][1,2,4]triazin-5-yl)azetidin-1-yl)-4-(4-fluoropiperidin-1-yl)but-2-en-1-one] | 1500 to 5000 nM | < 200 nM | < 200 nM | – | – | – |
| Cc1cc(Nc2ncnn3ccc(C4CN(C(=O)/C=C/CN(C)C)C4)c23)ccc1Oc1ccn2cnnc2c1 [Example 134, (E)-1-(3-(4-((4-([1,2,4]triazolo[4,3-a]pyridin-7-yloxy)-3-methylphenyl)amino)pyrrolo[2,1-f][1,2,4]triazin-5-yl)azetidin-1-yl)-4-(dimethylamino)but-2-en-1-one] | 1500 to 5000 nM | 200 to 500 nM | 1500 to 5000 nM | – | – | – |
| Cc1cc(Nc2ncnn3ccc(C4(O)CCN(C(=O)/C=C/CN(C)C)CC4)c23)ccc1Oc1ccn2ncnc2c1 [Example 50, (E)-1-(4-(4-((4-([1,2,4]triazolo[1,5-a]pyridin-7-yloxy)-3-methylphenyl)amino)pyrrolo[2,1-f][1,2,4]triazin-5-yl)-4-hydroxypiperidin-1-yl)-4-(dimethylamino)but-2-en-1-one] | 1500 to 5000 nM | 200 to 500 nM | 500 to 1500 nM | – | – | – |
| C=C(CN(C)C)C(=O)N1CC2CCC(C1)N2c1ccn2ncnc(Nc3ccc(Oc4ccn5ncnc5c4)c(C)c3)c12 [Example 49, 1-(8-(4-((4-([1,2,4]triazolo[1,5-a]pyridin-7-yloxy)-3-methylphenyl)amino)pyrrolo[2,1-f][1,2,4]triazin-5-yl)-3,8-diazabicyclo[3.2.1]octan-3-yl)-2-((dimethylamino)methyl)prop-2-en-1-one acetate] | 1500 to 5000 nM | < 200 nM | < 200 nM | – | – | – |
| C=CC(=O)NC1CCN(C(=O)c2ccn3ncnc(Nc4ccc(Oc5ccn6ncnc6c5)c(C)c4)c23)C1 (stereo not drawn) [Example 4, N-(1-(4-((4-([1,2,4]triazolo[1,5-a]pyridin-7-yloxy)-3-methylphenyl)amino)pyrrolo[2,1-f][1,2,4]triazine-5-carbonyl)pyrrolidin-3-yl)acrylamide] | 1500 to 5000 nM | < 200 nM | < 200 nM | – | – | – |
| Cc1cc(Nc2ncnn3cc(F)c(C4CCN(C(=O)/C=C/CN(C)C)CC4)c23)ccc1Oc1ccn2ncnc2c1 [Example 152, (E)-1-(4-(4-((4-([1,2,4]triazolo[1,5-a]pyridin-7-yloxy)-3-methylphenyl)amino)-6-fluoropyrrolo[2,1-f][1,2,4]triazin-5-yl)piperidin-1-yl)-4-(dimethylamino)but-2-en-1-one] | 1500 to 5000 nM | < 200 nM | < 200 nM | – | – | – |
| C=CC(=O)N1CC2CCC1CC2c1ccn2ncnc(Nc3ccc(Oc4ccn5ncnc5c4)c(C)c3)c12 (single isomer, unassigned) [Examples 139 and 140, first eluting isomer, 1-(5-(4-((4-([1,2,4]triazolo[1,5-a]pyridin-7-yloxy)-3-methylphenyl)amino)pyrrolo[2,1-f][1,2,4]triazin-5-yl)-2-azabicyclo[2.2.2]octan-2-yl)prop-2-en-1-one] | 1500 to 5000 nM | – | – | – | < 200 nM | < 200 nM |
| Cc1cc(Nc2ncnn3ccc(C4CCN(C(=O)/C=C/CN5CCC6(COC6)C5)CC4)c23)ccc1Oc1ccn2ncnc2c1 [Example 120, E-1-(4-(4-((4-([1,2,4]triazolo[1,5-a]-208-midazol-7-yloxy)-3-methylphenyl)amino)pyrrolo[2,1-f][1,2,4]triazin-5-yl)piperidin-1-yl)-4-(2-oxa-6-azaspiro[3.4]octan-6-yl)but-2-en-1-one] | 1500 to 5000 nM | < 200 nM | < 200 nM | – | – | – |
| Cc1cc(Nc2ncnn3ccc(C4CN(C(=O)/C(F)=C/C5CCCN5C)C4)c23)ccc1Oc1ccn2ncnc2c1 (stereo not drawn) [Example 92, (Z)-1-(3-(4-((4-([1,2,4]triazolo[1,5-a]pyridin-7-yloxy)-3-methylphenyl)amino)pyrrolo[2,1-f][1,2,4]triazin-5-yl)azetidin-1-yl)-2-fluoro-3-(1-methylpyrrolidin-2-yl)prop-2-en-1-one] | 1500 to 5000 nM | < 200 nM | < 200 nM | – | – | – |
| Cc1cc(Nc2ncnn3ccc([C@@H]4CCCN(C(=O)[C@H](F)Cl)CC4)c23)ccc1Oc1ccn2ncnc2c1 (single isomer, unassigned) [Examples 145, 146, 147 and 148, fourth eluting isomer] | 1500 to 5000 nM | 200 to 500 nM | 500 to 1500 nM | – | – | – |
| Cc1cc(Nc2ncnn3ccc(C4CCCN(C(=O)C(F)Cl)CC4)c23)ccc1Oc1ccn2ncnc2c1 (single isomer, unassigned) [Examples 145, 146, 147 and 148, third eluting isomer, 1-(4-(4-((4-([1,2,4]triazolo[1,5-a]pyridin-7-yloxy)-3-methylphenyl)amino)pyrrolo[2,1-f][1,2,4]triazin-5-yl)azepan-1-yl)-2-chloro-2-fluoroethan-1-one] | – | – | – | 1500 to 5000 nM | 500 to 1500 nM | 200 to 500 nM |
| C=C(CN(C)C)C(=O)N1C2CCC1CC(c1ccn3ncnc(Nc4ccc(Oc5ccn6ncnc6c5)c(C)c4)c13)C2 (single isomer, unassigned) [Examples 126 and 127, second eluting isomer, 1-(3-(4-((4-([1,2,4]triazolo[1,5-a]pyridin-7-yloxy)-3-methylphenyl)amino)pyrrolo[2,1-f][1,2,4]triazin-5-yl)-8-azabicyclo[3.2.1]octan-8-yl)-2-((dimethylamino)methyl)prop-2-en-1-one] | – | – | – | 1500 to 5000 nM | 500 to 1500 nM | < 200 nM |
| CNC/C=C/C(=O)N1CC(c2ccn3ncnc(Nc4ccc(Oc5ccc6c(c5)ncn6C)c(C)c4)c23)C1 [Example 153, (E)-1-(3-(4-((3-methyl-4-((1-methyl-1H-benzo[d]imidazol-5-yl)oxy)phenyl)amino)pyrrolo[2,1-f][1,2,4]triazin-5-yl)azetidin-1-yl)-4-(methylamino)but-2-en-1-one] | 1500 to 5000 nM | 1500 to 5000 nM | 1500 to 5000 nM | – | – | – |

Source: US20250276983A1, “COMPOUNDS AND METHODS FOR MODULATING HER2” (IAMBIC THERAPEUTICS, INC., priority 2022, published 2025)
